Bridges are numbered along the chain shown (N, C = ends).
T1: human IL-23R endogenously expressed on DB cells (human, UniProt Q5VWK5 24-629)
T1 sequence (looked up): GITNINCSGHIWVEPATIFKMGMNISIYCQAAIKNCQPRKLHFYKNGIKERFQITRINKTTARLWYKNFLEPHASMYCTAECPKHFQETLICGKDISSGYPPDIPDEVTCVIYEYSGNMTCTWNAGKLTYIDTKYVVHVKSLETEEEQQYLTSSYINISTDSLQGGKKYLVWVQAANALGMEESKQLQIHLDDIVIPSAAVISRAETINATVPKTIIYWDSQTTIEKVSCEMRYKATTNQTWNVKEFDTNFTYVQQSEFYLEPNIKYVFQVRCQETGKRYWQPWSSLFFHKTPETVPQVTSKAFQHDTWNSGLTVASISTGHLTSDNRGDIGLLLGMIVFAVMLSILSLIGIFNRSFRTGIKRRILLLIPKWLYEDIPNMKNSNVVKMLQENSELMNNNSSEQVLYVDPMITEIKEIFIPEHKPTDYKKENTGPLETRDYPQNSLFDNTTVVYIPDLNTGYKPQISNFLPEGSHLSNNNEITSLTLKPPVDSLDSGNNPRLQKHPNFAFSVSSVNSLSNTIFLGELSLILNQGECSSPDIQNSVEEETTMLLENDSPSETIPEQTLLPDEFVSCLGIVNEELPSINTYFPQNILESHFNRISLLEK

T2: Nluc-IL23R fusion protein (human, UniProt Q5VWK5 22-629)
T2 construct: range 22-629; expressed with a secretion signal in HEK293 cells; used as crude membrane preparation; also called hIL-23R; human IL-23R; not shown: Nanoluc protein from the expression plasmid N1371 (Promega), N-terminal of IL-23R
T2 sequence (looked up): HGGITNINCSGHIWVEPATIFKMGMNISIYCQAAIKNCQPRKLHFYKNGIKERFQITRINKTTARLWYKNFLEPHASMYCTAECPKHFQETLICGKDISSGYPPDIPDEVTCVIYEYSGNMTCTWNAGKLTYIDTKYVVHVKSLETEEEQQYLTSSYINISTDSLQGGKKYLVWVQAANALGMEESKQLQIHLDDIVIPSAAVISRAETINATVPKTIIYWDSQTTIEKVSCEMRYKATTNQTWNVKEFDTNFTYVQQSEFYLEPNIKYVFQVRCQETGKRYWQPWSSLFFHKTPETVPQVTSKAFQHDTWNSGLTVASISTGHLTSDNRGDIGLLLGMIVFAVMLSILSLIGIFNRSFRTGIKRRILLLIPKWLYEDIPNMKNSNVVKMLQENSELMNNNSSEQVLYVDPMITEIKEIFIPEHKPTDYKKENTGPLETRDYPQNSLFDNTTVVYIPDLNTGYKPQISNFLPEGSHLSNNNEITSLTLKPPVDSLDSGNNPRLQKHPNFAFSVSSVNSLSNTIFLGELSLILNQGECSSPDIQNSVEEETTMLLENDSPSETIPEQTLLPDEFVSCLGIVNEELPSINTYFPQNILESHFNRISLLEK


Assays:
[1] = tested on: porcine pepsin (P7125, Sigma Aldrich); test: SGF: sodium chloride, HCl, pH 1.2, with porcine pepsin (3.2 g/L); settings: 37 °C, up to 4 hours
[2] = tested on: porcine pancreatin (P1625, Sigma Aldrich); test: SIF: monobasic potassium phosphate, pH 6.8, with porcine pancreatin (10 g/L); settings: 37 °C, up to 4 hours
[3] = target: T1, human IL-23R endogenously expressed on …; test: cell-based or functional assay
[4] = target: T2, Nluc-IL23R fusion protein; test: BRET competition vs TAMRA-labelled peptide, Nluc-IL23R membranes

| not cleaved [1] [% remaining after 4 h] | not cleaved [2] [% remaining after 4 h] | cleaved bond [2] | hIL-23 (pSTAT3) antagonist % inhibition [3] [%] | % displacement (hIL-23R binding) [4] [%] | Molecule |
| --- | --- | --- | --- | --- | --- |
| 98 | 92 |  |  |  | [4-Aminomethyl-phenylacetyl](1c)*AE(2c)WQ[Dab](2c)[7-AzaTrp][2-Nal][Aib]E(1c)[Dab][3-(3-Pyridyl)-Ala] |
|  | 92 |  |  |  | [4-Aminomethyl-phenylacetyl](1c)*AE(2c)WQ[Dab](2c)[7-F-Trp][2-Nal][Aib]E(1c)[Dab][3-(3-Pyridyl)-Ala] |
| 103 | 90 |  |  |  | [4-Aminomethyl-phenylacetyl](1c)*AE(2c)WQ[Dab](2c)[Y(2-aminoethoxy)][2-Nal][2-Me-Leu]E(1c)[Dab][3-(3-Pyridyl)-Ala]-[NHMe] |
| 102 | 95 |  |  |  | [4-Aminomethyl-phenylacetyl](1c)*AE(2c)WQ[Dab](2c)[hPhe][2-Nal][Aib]E(1c)[Dab][3-(3-Pyridyl)-Ala] |
| 104 | 109 |  |  |  | [4-Aminomethyl-phenylacetyl](1c)*SE(2c)WQ[Dab](2c)[Y(2-aminoethoxy)][2-Nal][2-Me-Leu]E(1c)[Dab][2-Me-3-(3-Pyridyl)-Ala]-[NH2] |
| 90 |  | Dab12-3Pal13, major |  |  | [4-Aminomethyl-phenylacetyl](1c)*SE(2c)WQ[Dab](2c)[Y(2-aminoethoxy)][2-Nal][2-Me-Leu]E(1c)[Dab][3-(3-Pyridyl)-Ala]-[NH2] |
|  | 105 |  |  |  | [4-Aminomethyl-phenylacetyl](1c)*SE(2c)WQ[Dab](2c)[Y(2-aminoethoxy)][2-Nal][2-Me-Leu]E(1c)[Dab][3-(3-Pyridyl)-Ala]-[NHMe] |
| 95 | 105 |  |  |  | [4-Aminomethyl-phenylacetyl](1c)*SE(2c)WQ[Dab](2c)[Y(2-aminoethoxy)][2-Nal][2-Me-Leu]E(1c)[Dab][3-(3-Pyridyl)-Ala][Sar]-[NH2] |
| 97 | 102 |  |  |  | [4-Aminomethyl-phenylacetyl](1c)*SE(2c)WQ[Dab](2c)[Y(2-aminoethoxy)][2-Nal][2-Me-Leu]E(1c)[Dab][3-(3-Pyridyl)-Ala][beta-hLeu]-[NH2] |
| 94 | 96 |  |  |  | [4-Aminomethyl-phenylacetyl](1c)*SE(2c)WQ[Dab](2c)[Y(2-aminoethoxy)][2-Nal][2-Me-Leu]E(1c)[THP][3-(3-Pyridyl)-Ala] |
| 99 | 91 |  |  |  | [4-Aminomethyl-phenylacetyl](1c)*SE(2c)W[Cit][Dab](2c)[Y(2-aminoethoxy)][2-Nal][2-Me-Leu]E(1c)[Dab][3-(3-Pyridyl)-Ala] |
|  | 91 |  |  |  | [4-Aminomethyl-phenylacetyl](1c)*SE(2c)W[Dab(Ac)][Dab](2c)[Y(2-aminoethoxy)][2-Nal][2-Me-Leu]E(1c)[Dab][3-(3-Pyridyl)-Ala] |
| 110 | 110 |  |  |  | [4-Aminomethyl-phenylacetyl](1c)*SE(2c)W[Orn][Dab](2c)[Y(2-aminoethoxy)][2-Nal][2-Me-Leu]E(1c)[Dab][3-(3-Pyridyl)-Ala] |
|  | 94 |  |  |  | [4-Aminomethyl-phenylacetyl](1c)*SE(2c)W[Q(2Me)][Dab](2c)[Y(2-aminoethoxy)][2-Nal][2-Me-Leu]E(1c)[Dab][3-(3-Pyridyl)-Ala] |
| 90 | 92 |  |  |  | [4-Aminomethyl-phenylacetyl](1c)*SE(2c)W[Q(Me)][Dab](2c)[Y(2-aminoethoxy)][2-Nal][2-Me-Leu]E(1c)[Dab][3-(3-Pyridyl)-Ala] |
|  |  |  | 23 | 84 | H-ECWLCYYRNCNCM-NH2 (linker 5-10, 2-12 via 1,3‑dithio‑propan‑2‑one, compound from Heinis et al., 2020, synthesised for comparison) [I4 (isomer 3)] |
